In PMC10501326, “A Phase I Study of the Pan-Notch Inhibitor CB-103 for Patients with Advanced Adenoid Cystic Carcinoma and Other Tumors” (Cancer Research Communications, 2023):
Where “and” joins values, the source holds several entries; their conditions need not be identical. Equal values may be shown once. Read-outs that look alike come from different tables or passages of the source.

What was measured:
Type in all cases: in vivo, human
[1] = Plasma pharmacokinetics (LC/MS-MS); settings: for half-life: SD, read-out: Plasma elimination half-life (t1/2) (converted)
Description: Plasma pharmacokinetics were assessed for CB-103 via blood samples taken on days 1 (predose, 0.5, 1, 2, 4, 6, 8 hours postdose ± 5 minutes, and 12 hours postdose ± 15 minutes), 2 (24-hour post-day 1, predose), 3 (predose), 8 (predose, 0.5, 1, 2, 4, 6, and 8 hour postdose ± 5 minutes), 9 (24-hour post-day 8, predose), 15, and 22 (predose, and 1 hour postdose) in cycle 1. In cycle 2, on day 1 (predose, 0.5, 1, 2, 6, and, 8 hours postdose ± 5 minutes) and 15 (predose); in cycles 3–6 once at each visit (predose or postdose). For a twice daily dose schedule, pharmacokinetic timepoints were adjusted to evaluate concentration-versus-time curves after morning and evening doses on days 1 and 8.
CB-103 concentrations were determined by validated high-performance LC/MS-MS method and analyzed descriptively using Phoenix WinNonlin v6.3 (Pharsight Corporation). Data at timepoints collected were used to generate a population pharmacokinetic model to estimate AUC and Cmax to associate with safety and efficacy.

HEY1 = assay: Peripheral whole blood Notch target gene expression (Nanostring); settings: twice daily dosing, vs baseline
Description: (§1) Archival tumor tissue (not older than 6 months prior to screening) or fresh tumor biopsy was required to characterize Notch alteration status by targeted genomic sequencing and/or NICD1 expression (via IHC) among the confirmatory cohort at baseline. Repeat biopsy on cycle 2 day 15 and at disease progression was optional. Serial whole blood samples (and/or bone marrow samples and saliva among patients with T-ALL/T-LBL) were obtained on day 1 of cycles 1–6 to evaluate the dynamics of Notch gene expression. Peripheral blood was collected with PaxGene tubes and frozen at −20°C until processing. RNA was extracted (Qiagen RNeasy Micro kit) from peripheral whole blood and analyzed by Nanostring with percent change in expression levels reported with respect to baseline normalized values.

IL7R alpha = assay: as above; settings: twice daily dosing, vs baseline
Description: as §1

NOTCH 2 = assay: as above; settings: twice daily dosing, vs baseline
Description: as §1

NOTCH1 = assay: as above; settings: twice daily dosing, vs baseline
Description: as §1

NOTCH4 = assay: as above; settings: twice daily dosing, vs baseline
Description: as §1

[2] = individual patient, total dose 800 mg
[3] = individual patients, total dose 500 mg
[4] = individual patients, total dose 600 mg
[5] = individual patients, total dose 1000 mg

Molecule `CC(C)(C)c1ccc(Oc2ccc(N)cn2)cc1` [CB-103] has an AUC ([1]; human, plasma, oral, 13 mg, Cohort 1 (13 mg), Cycle 1, Day 1, read-out: Mean AUC24) of 174 ng·h/mL, a Cmax ([1]; human, plasma, oral, 13 mg, Cohort 1 (13 mg), Cycle 1, Day 1, read-out: Mean Cmax) of 44.4 ng/mL and an AUC ([1]; human, plasma, oral, 13 mg, Cohort 1 (13 mg), Cycle 1, Day 8, read-out: Mean AUC24) of 433 ng·h/mL. It also gave a Cmax ([1]; human, plasma, oral, 13 mg, Cohort 1 (13 mg), Cycle 1, Day 8, read-out: Mean Cmax) of 58.7 ng/mL, an AUC ([1]; human, plasma, oral, 26 mg, Cohort 2 (26 mg), Cycle 1, Day 1, read-out: Mean AUC24) of 220 ng·h/mL and a Cmax ([1]; human, plasma, oral, 26 mg, Cohort 2 (26 mg), Cycle 1, Day 1, read-out: Mean Cmax) of 53.7 ng/mL. For the same molecule, the AUC ([1]; human, plasma, oral, 52 mg, Cohort 3 (52 mg), Cycle 1, Day 1, read-out: Mean AUC24) was 496 ng·h/mL, the Cmax ([1]; human, plasma, oral, 52 mg, Cohort 3 (52 mg), Cycle 1, Day 1, read-out: Mean Cmax) was 98.5 ng/mL and the AUC ([1]; human, plasma, oral, 52 mg, Cohort 3 (52 mg), Cycle 1, Day 8, read-out: Mean AUC24) was 999 ng·h/mL. For the same molecule, the Cmax ([1]; human, plasma, oral, 52 mg, Cohort 3 (52 mg), Cycle 1, Day 8, read-out: Mean Cmax) was 154 ng/mL, the AUC ([1]; human, plasma, oral, 104 mg, Cohort 4 (104 mg), Cycle 1, Day 1, read-out: Mean AUC24) was 1440 ng·h/mL and the Cmax ([1]; human, plasma, oral, 104 mg, Cohort 4 (104 mg), Cycle 1, Day 1, read-out: Mean Cmax) was 368 ng/mL. For the same molecule, the AUC ([1]; human, plasma, oral, 104 mg, Cohort 4 (104 mg), Cycle 1, Day 8, read-out: Mean AUC24) was 3690 ng·h/mL, the Cmax ([1]; human, plasma, oral, 104 mg, Cohort 4 (104 mg), Cycle 1, Day 8, read-out: Mean Cmax) was 418 ng/mL and the AUC ([1]; human, plasma, oral, 148 mg, Cohort 5 (148 mg), Cycle 1, Day 1, read-out: Mean AUC24) was 1260 ng·h/mL. For the same molecule, the Cmax ([1]; human, plasma, oral, 148 mg, Cohort 5 (148 mg), Cycle 1, Day 1, read-out: Mean Cmax) was 482 ng/mL, the AUC ([1]; human, plasma, oral, 148 mg, Cohort 5 (148 mg), Cycle 1, Day 8, read-out: Mean AUC24) was 2830 ng·h/mL and the Cmax ([1]; human, plasma, oral, 148 mg, Cohort 5 (148 mg), Cycle 1, Day 8, read-out: Mean Cmax) was 427 ng/mL. For the same molecule, the AUC ([1]; human, plasma, oral, 217 mg, Cohort 6 (217 mg), Cycle 1, Day 1, read-out: Mean AUC24) was 2620 ng·h/mL, the Cmax ([1]; human, plasma, oral, 217 mg, Cohort 6 (217 mg), Cycle 1, Day 1, read-out: Mean Cmax) was 731 ng/mL and the AUC ([1]; human, plasma, oral, 217 mg, Cohort 6 (217 mg), Cycle 1, Day 8, read-out: Mean AUC24) was 4250 ng·h/mL. It also gave a Cmax ([1]; human, plasma, oral, 217 mg, Cohort 6 (217 mg), Cycle 1, Day 8, read-out: Mean Cmax) of 912 ng/mL, an AUC ([1]; human, plasma, oral, 250 mg, Cohort 9 (250 mg BID), Cycle 1, Day 1, read-out: Mean AUC24) of 6140 ng·h/mL and a Cmax ([1]; human, plasma, oral, 250 mg, Cohort 9 (250 mg BID), Cycle 1, Day 1, read-out: Mean Cmax) of 1010 ng/mL. For the same molecule, the AUC ([1]; human, plasma, oral, 250 mg, Cohort 9 (250 mg BID), Cycle 1, Day 8, read-out: Mean AUC24) was 11700 ng·h/mL, the Cmax ([1]; human, plasma, oral, 250 mg, Cohort 9 (250 mg BID), Cycle 1, Day 8, read-out: Mean Cmax) was 1310 ng/mL and the AUC ([1]; human, plasma, oral, 300 mg, Cohort 10 (300 mg BID 5/2), Cycle 1, Day 1, read-out: Mean AUC24) was 10400 ng·h/mL. It also gave a Cmax ([1]; human, plasma, oral, 300 mg, Cohort 10 (300 mg BID 5/2), Cycle 1, Day 1, read-out: Mean Cmax) of 1630 ng/mL, an AUC ([1]; human, plasma, oral, 300 mg, Cohort 10 (300 mg BID 5/2), Cycle 1, Day 8, read-out: Mean AUC24) of 11300 ng·h/mL and a Cmax ([1]; human, plasma, oral, 300 mg, Cohort 10 (300 mg BID 5/2), Cycle 1, Day 8, read-out: Mean Cmax) of 1390 ng/mL. For the same molecule, the AUC ([1]; human, plasma, oral, 348 mg, Cohort 7 (348 mg), Cycle 1, Day 1, read-out: Mean AUC24) was 3520 ng·h/mL, the Cmax ([1]; human, plasma, oral, 348 mg, Cohort 7 (348 mg), Cycle 1, Day 1, read-out: Mean Cmax) was 1150 ng/mL and the AUC ([1]; human, plasma, oral, 348 mg, Cohort 7 (348 mg), Cycle 1, Day 8, read-out: Mean AUC24) was 6880 ng·h/mL. For the same molecule, the Cmax ([1]; human, plasma, oral, 348 mg, Cohort 7 (348 mg), Cycle 1, Day 8, read-out: Mean Cmax) was 874 ng/mL, the AUC ([1]; human, plasma, oral, 400 mg, Cohort 11 (400 mg BID 5/2), Cycle 1, Day 1, read-out: Mean AUC24) was 14900 ng·h/mL and the Cmax ([1]; human, plasma, oral, 400 mg, Cohort 11 (400 mg BID 5/2), Cycle 1, Day 1, read-out: Mean Cmax) was 1620 ng/mL. It also gave an AUC ([1]; human, plasma, oral, 400 mg, Cohort 11 (400 mg BID 5/2), Cycle 1, Day 8, read-out: Mean AUC24) of 14100 ng·h/mL, a Cmax ([1]; human, plasma, oral, 400 mg, Cohort 11 (400 mg BID 5/2), Cycle 1, Day 8, read-out: Mean Cmax) of 2400 ng/mL and an AUC ([1]; human, plasma, oral, 500 mg, Cohort 12 (500 mg BID 5/2), Cycle 1, Day 1, read-out: Mean AUC24) of 14200 ng·h/mL. For the same molecule, the Cmax ([1]; human, plasma, oral, 500 mg, Cohort 12 (500 mg BID 5/2), Cycle 1, Day 1, read-out: Mean Cmax) was 2390 ng/mL, the AUC ([1]; human, plasma, oral, 500 mg, Cohort 12 (500 mg BID 5/2), Cycle 1, Day 8, read-out: Mean AUC24) was 18600 ng·h/mL and the Cmax ([1]; human, plasma, oral, 500 mg, Cohort 12 (500 mg BID 5/2), Cycle 1, Day 8, read-out: Mean Cmax) was 2760 ng/mL. For the same molecule, the Cmax ([1]; human, plasma, oral, 500 mg, individual patients, total dose 500 mg, twice daily dosing, read-out: Cmax) was 1230 ng/mL, the AUC ([1]; human, plasma, oral, 522 mg, Cohort 8 (522 mg), Cycle 1, Day 1, read-out: Mean AUC24) was 5910 ng·h/mL and the Cmax ([1]; human, plasma, oral, 522 mg, Cohort 8 (522 mg), Cycle 1, Day 1, read-out: Mean Cmax) was 1230 ng/mL. The AUC ([1]; human, plasma, oral, 522 mg, Cohort 8 (522 mg), Cycle 1, Day 8, read-out: Mean AUC24) was 13500 ng·h/mL, the Cmax ([1]; human, plasma, oral, 522 mg, Cohort 8 (522 mg), Cycle 1, Day 8, read-out: Mean Cmax) was 1740 ng/mL and the Cmax ([1]; human, plasma, oral, 800 mg, individual patient, total dose 800 mg, twice daily dosing, read-out: Cmax) was 1730 ng/mL. For the same molecule, the half-life ([1]; human, plasma, oral, cycle 1 day 1, 8.5) was 16.5 h, the Cmax ([1]; human, plasma, oral, cycle 1 day 1, entire sampled cohort, read-out: Mean Cmax) was 731 ng/mL and the half-life ([1]; human, plasma, oral, cycle 1 day 8, 42.6) was 37.7 h. It also gave an AUC ([1]; human, plasma, oral, entire sampled cohort, read-out: Mean AUC from 0 to 24) of 3160 ng·h/mL, a Tmax ([1]; human, plasma, oral, day 1 of cycle 1, dose-escalation cohorts 1 through 8, read-out: Peak (tmax)) of 0.5 to 2 h and a Cmax ([1]; individual patients, total dose 500 mg, twice daily dosing, read-out: Cmax) of 1800 ng/mL. The Cmax ([1]; individual patients, total dose 600 mg, twice daily dosing) was 638 ng·h/mL and 2100 ng·h/mL and 1280 ng·h/mL and 1220 ng·h/mL and 1710 ng·h/mL, the Cmax ([1]; individual patients, total dose 1000 mg, twice daily dosing) was 4420 ng·h/mL and 2580 ng·h/mL and 3760 ng·h/mL and 2410 ng·h/mL and 1240 ng·h/mL and the “HEY1 percent change in peripheral expression” value (from here on “HEY1 percent change”) (HEY1; [2]) was 52.3%. For the same molecule, the “HEY1 percent change” value (HEY1; [3]) was -52.0%, the “HEY1 percent change” value (HEY1; [4]) was 5.0% and -36.1% and 30.3% and -25.6% and the “HEY1 percent change” value (HEY1; [5]) was 11.7% and -71.3% and -75.9% and -55.2% and -57.8%. The “IL7R alpha percent change in peripheral expression” value (“IL7R alpha percent change” below) (IL7R alpha; [2]) was -29.7%, the “IL7R alpha percent change” value (IL7R alpha; [3]) was 32.3% and 33.5% and the “IL7R alpha percent change” value (IL7R alpha; [4]) was 58.3% and -58.0% and -24.8% and -2.9% and -29.3%. The “IL7R alpha percent change” value (IL7R alpha; [5]) was -53.6% and 3.5% and -16.2% and 0.2% and -41.7%, the “NOTCH 2 percent change in peripheral expression” value (“NOTCH 2 percent change” for short) (NOTCH 2; [2]) was -9.4% and the “NOTCH 2 percent change” value (NOTCH 2; [3]) was 19.9% and -9.6%. The “NOTCH 2 percent change” value (NOTCH 2; [4]) was -25.2% and -38.4% and -5.5% and -14.8% and -41.1%, the “NOTCH 2 percent change” value (NOTCH 2; [5]) was -31.8% and -14.2% and -39.3% and -15.2% and 5.1% and the “NOTCH1 percent change in peripheral expression” value (shortened to “NOTCH1 percent change”) (NOTCH1; [2]) was -15.5%. The “NOTCH1 percent change” value (NOTCH1; [3]) was 39.2% and -7.1%, the “NOTCH1 percent change” value (NOTCH1; [4]) was -28.1% and -41.2% and -35.7% and -14.2% and -39.7% and the “NOTCH1 percent change” value (NOTCH1; [5]) was -8.7% and -0.1% and -58.3% and -20.2% and -13.3%. The “NOTCH4 percent change in peripheral expression” value (shortened to “NOTCH4 percent change”) (NOTCH4; [2]) was -3.5%, the “NOTCH4 percent change” value (NOTCH4; [3]) was 37.6% and -16.9% and the “NOTCH4 percent change” value (NOTCH4; [4]) was 34.0% and -49.7% and -7.9% and 11.5% and 32.9%. The “NOTCH4 percent change” value (NOTCH4; [5]) was -20.8% and -40.4% and 22.0% and 4.5% and 29.7%.
